Data on five compounds can be found in patent US20220390435A1, “COMPOSITIONS FOR PATIENT SPECIFIC IMMUNOTHERAPY” (VITROSCAN B.V., priority 2019, published 2022).

Holding throughout (assay type): cell-based, human
In one assay the test system is ovarian cancer tumoroids. Briefly: ex vivo 3D patient-derived tumour culture with 3D imaging, ovarian cancer samples. The following applies: for area size of small objects (smaller than 160 μm^2, immune cells): same ovarian tumour sample as FIG. 4, FIG. 5.
The next assay concerns lung tumour sample. The experiment in a line: ex vivo 3D patient-derived tumour culture with 3D imaging, lung tumour sample. The following applies: FIG. 6.
For assay [1], the system named is Mesothelioma tumour sample. The experiment in a line: ex vivo 3D patient-derived tumour culture with 3D imaging, mesothelioma sample. The following applies: FIG. 3.
A further assay deals with IFN-γ. The experiment in a line: IFN-γ production in treated patient-derived cultures. The following applies: FIG. 7; IFN-γ is secreted by activated T-cells.
For assay [2], the system named is patient derived tumour cell aggregates. The experiment in a line: Selection Factor (tumoroids' area decrease) across patient samples. The following applies: for immune reaction reducing the number of tumour cells (Selection Factor across samples): FIGS. 8 and 9, alone or in combination, immune system of a naïve patient sample only.

Regarding pembrolizumab, the “killing effect, i.e. area size reduction of tumoroid clusters” value with ovarian cancer tumoroids (ovarian tumour sample, FIG. 4) was “killing effect, i.e. area size reduction of tumoroid clusters”. Moreover, the “area size of small objects (smaller than 160 μm^2, immune cells)” value in the assay with ovarian cancer tumoroids is “area size increase of small objects”. Further, in the assay with lung tumour sample, the “killing effect in a lung cancer tumour sample” value is “killing effect in a lung cancer tumour sample”.

nivolumab: the “killing effect in a lung cancer tumour sample” value in the assay on lung tumour sample is listed as “killing effect in a lung cancer tumour sample”.

For ipilimumab, in the assay with ovarian cancer tumoroids (ovarian cancer samples of FIG. 1), the “activating native immune cells to kill ovarian cancer tumoroids (total area of objects larger than 422 μm^2 / smaller than 160 μm^2)” value was “showed effectiveness in activating immune cells”. Besides, the “activating native immune cells to kill tumoroids” value in the assay on ovarian cancer tumoroids (ovarian cancer samples of FIG. 2) is reported as “does not show effectiveness”. For the same compound, the “immune-mediated tumoroid killing effect” value in assay [1] is listed as “showing immune-mediated tumoroid killing effect”. The “killing effect in a lung cancer tumour sample” value in the assay on lung tumour sample is on record as “killing effect in a lung cancer tumour sample”. In the assay on IFN-γ, the IFN-γ production entry is “increased”. The “immune reaction reducing the number of tumour cells (Selection Factor across samples)” value in assay [2] was “able to start an immune reaction that effectively reduced the number of tumour cells”. In addition, the “in-vitro Selection Factor” value in assay [2] (subset of patients that benefit from treatment) is “below −30%”.

On to `Nc1ncnc2c1ncn2[C@@H]1O[C@@H]2COP(=O)([S-])O[C@@H]3[C@H](O)[C@@H](COP([O-])(=S)O[C@H]2[C@H]1O)O[C@H]3n1cnc2c(N)ncnc21.[Na+].[Na+]` (stereo partly shown) [ADU-S100], for which the “area size of small objects (smaller than 160 μm^2, immune cells)” value in the assay on ovarian cancer tumoroids was “area size increase of small objects”.

With `O=C(c1cc(Cc2n[nH]c(=O)c3ccccc23)ccc1F)N1CCN(C(=O)C2CC2)CC1` [olaparib], the “immune reaction reducing the number of tumour cells (Selection Factor across samples)” value in assay [2] is “able to start an immune reaction that effectively reduced the number of tumour cells”.
